According to US12590091B2, “1H-pyrrolo[3,2-C]pyridine and 1H-pyrrolo[2,3-C]pyridine derivatives as TLR9 inhibitors for the treatment of fibrosis” (BRISTOL-MYERS SQUIBB COMPANY, priority 2020, dated 2026):

Target: T1, human TLR9 (Homo sapiens, UniProt Q9NR96)
T1 construct: host or cells: HEK-Blue cells
T1 sequence (Q9NR96 26-1032): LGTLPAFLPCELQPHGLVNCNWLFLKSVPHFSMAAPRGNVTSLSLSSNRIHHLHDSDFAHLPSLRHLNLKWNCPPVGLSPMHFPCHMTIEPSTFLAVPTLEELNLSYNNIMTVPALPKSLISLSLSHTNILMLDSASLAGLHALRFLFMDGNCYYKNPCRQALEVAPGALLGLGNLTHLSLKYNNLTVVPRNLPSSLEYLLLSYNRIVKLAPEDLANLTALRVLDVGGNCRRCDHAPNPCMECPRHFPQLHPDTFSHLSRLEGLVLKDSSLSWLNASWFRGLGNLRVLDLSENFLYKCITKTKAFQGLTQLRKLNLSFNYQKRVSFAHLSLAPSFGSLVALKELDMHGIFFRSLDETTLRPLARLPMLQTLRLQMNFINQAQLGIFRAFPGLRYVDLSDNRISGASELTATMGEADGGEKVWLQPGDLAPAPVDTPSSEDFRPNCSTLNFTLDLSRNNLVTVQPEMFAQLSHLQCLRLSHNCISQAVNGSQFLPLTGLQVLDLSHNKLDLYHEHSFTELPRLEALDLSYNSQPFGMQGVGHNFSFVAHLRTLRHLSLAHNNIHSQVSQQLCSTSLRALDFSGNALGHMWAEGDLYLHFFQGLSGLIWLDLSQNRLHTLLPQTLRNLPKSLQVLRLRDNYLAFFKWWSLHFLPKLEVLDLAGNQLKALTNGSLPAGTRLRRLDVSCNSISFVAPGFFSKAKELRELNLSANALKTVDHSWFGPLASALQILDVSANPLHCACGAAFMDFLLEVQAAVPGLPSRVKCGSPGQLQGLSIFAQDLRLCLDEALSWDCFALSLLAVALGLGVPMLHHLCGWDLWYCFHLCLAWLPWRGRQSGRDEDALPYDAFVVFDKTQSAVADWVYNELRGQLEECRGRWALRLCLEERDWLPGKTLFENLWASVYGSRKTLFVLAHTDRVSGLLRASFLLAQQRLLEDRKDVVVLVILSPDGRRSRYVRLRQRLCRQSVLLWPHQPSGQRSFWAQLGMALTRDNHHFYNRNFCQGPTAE
Assay: TLR9 inhibition reporter assay (HEK-Blue cells, SEAP reporter)
Format: cell-based
Details: HEK-Blue cells overexpressing human TLR9, stimulated with ODN2006 5 nM, 22 hour incubation
How it was run: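 Compound dose-response (0.05 nM–50 μM final) on agonist-stimulated human TLR9 HEK-Blue cells, 25,000/well, incubated 22 h at 37 °C, 5% CO2. Readout was secreted alkaline phosphatase under an IFN-β minimal promoter with NF-κB/AP-1 sites; inhibition expressed relative to DMSO and reference-inhibitor controls.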

| Structure (SMILES) | IC50 [nM] |
| --- | --- |
| Cc1nc(-c2cc(F)c(N3CCNCC3)cc2F)cc2c1cc(-c1ccc(S(C)(=O)=O)cc1)n2C [Example 43, 6-(2,5-Difluoro-4-(piperazin-1-yl)phenyl)-1,4-dimethyl-2-(4-(methylsulfonyl)phenyl)-1H-pyrrolo[3,2-c]pyridine] | 79 |
| COc1ccc(-c2c(C)n(C)c3cnc(-c4ccc(N5CCN(CC(C)(C)O)CC5)cc4)cc23)cc1OC [Example 3, 1-(4-(4-(3-(3,4-Dimethoxyphenyl)-1,2-dimethyl-1H-pyrrolo[2,3-c]pyridin-5-yl)phenyl)piperazin-1-yl)-2-methylpropan-2-ol] | 82 |
| COc1ccc(-c2c(C)n(C)c3cnc(-c4ccc(N5CCN(C(C)C)CC5)cc4)cc23)cc1OC [Example 32, 3-(3,4-dimethoxyphenyl)-5-(4-(4-isopropylpiperazin-1-yl)phenyl)-1,2-dimethyl-1H-pyrrolo[2,3-c]pyridine] | 170 |
| Cc1nc(-c2cc(F)c(N3CC4CCC(C3)N4CCCO)cc2F)cc2c1cc(-c1ccc(S(C)(=O)=O)cc1)n2C [Example 79, 3-(3-(4-(1,4-dimethyl-2-(4-(methylsulfonyl)phenyl)-1H-pyrrolo[3,2-c]pyridin-6-yl)-2,5-difluorophenyl)-3,8-diazabicyclo[3.2.1]octan-8-yl) propan-1-ol] | 35 |
| COc1ccc(-c2c(C)[nH]c3cnc(C4CCN(c5cc(C)nc(C)c5)CC4)cc23)cc1OC [Example 6, 3-(3,4-Dimethoxyphenyl)-5-(1-(2,6-dimethylpyridin-4-yl)piperidin-4-yl)-2-methyl-1H-pyrrolo[2,3-c]pyridine] | 296 |
| Cc1nc(-c2ccc(CN3CCN(CC(C)(C)O)CC3)cc2)cc2c1c(F)c(-c1ccc(S(C)(=O)=O)cc1)n2C [Example 122, 1-(4-(4-(3-fluoro-1,4-dimethyl-2-(4-(methylsulfonyl)phenyl)-1H-pyrrolo[3,2-c]pyridin-6-yl)benzyl)piperazin-1-yl)-2-methylpropan-2-ol] | 103 |
| COc1ccc(-c2cc3cnc(-c4ccc(N5CCN(C)CC5)cc4)cc3n2C)cc1OC [Example 27, 2-(3,4-dimethoxyphenyl)-1-methyl-6-(4-(4-methylpiperazin-1-yl)phenyl)-1H-pyrrolo[3,2-c]pyridine] | 45 |
| CC(C)(O)CN1CCN(Cc2ccc(-c3cc4c(cn3)cc(-c3ccc(S(C)(=O)=O)cc3)n4C3CC3)cc2)CC1 [Example 128, 1-(4-(4-(1-cyclopropyl-2-(4-(methylsulfonyl)phenyl)-1H-pyrrolo[3,2-c]pyridin-6-yl)benzyl)piperazin-1-yl)-2-methylpropan-2-ol] | 115 |
| COc1ccc(-c2c(C)[nH]c3cnc(-c4ccc(N5CCN(C(C)C)CC5)cc4)cc23)cc1OC [Example 2, 3-(3,4-dimethoxyphenyl)-5-(4-(4-isopropylpiperazin-1-yl)phenyl)-2-methyl-1H-pyrrolo[2,3-c]pyridine] | 157 |
| COc1ccc(-c2c(C)n(C)c3cnc(-c4ccc(N5CCN(CCC(C)(C)O)CC5)cc4)cc23)cc1OC [Example 33, 4-(4-(4-(3-(3,4-dimethoxyphenyl)-1,2-dimethyl-1H-pyrrolo[2,3-c]pyridin-5-yl)phenyl)piperazin-1-yl)-2-methylbutan-2-ol] | 27 |
| Cc1nc(-c2ccc(N3CCN(CC(C)C)CC3)c(F)c2F)cc2c1cc(-c1ccc(S(C)(=O)=O)cc1)n2C [Example 82, 6-(2,3-difluoro-4-(4-isobutylpiperazin-1-yl)phenyl)-1,4-dimethyl-2-(4-(methylsulfonyl)phenyl)-1H-pyrrolo[3,2-c]pyridine] | 329 |
| Cc1nc(-c2ccc(N3CCN(C4CCOC4)CC3)c(F)c2)cc2c1cc(-c1ccc(S(C)(=O)=O)cc1)n2C (stereo not shown) [Example 70, 6-(3-fluoro-4-(4-(tetrahydrofuran-3-yl)piperazin-1-yl)phenyl)-1,4-dimethyl-2-(4-(methylsulfonyl)phenyl)-1H-pyrrolo[3,2-c]pyridine] | 260 |
| Cc1nc(-c2ccc(CN3CCN(CCCO)CC3)cc2)cc2c1cc(-c1ccc(S(C)(=O)=O)cc1)n2C [Example 58, 3-(4-(4-(1,4-dimethyl-2-(4-(methylsulfonyl)phenyl)-1H-pyrrolo[3,2-c]pyridin-6-yl)benzyl)piperazin-1-yl)propan-1-ol] | 107 |

Further compounds by falling IC50, results first:

| IC50 [nM] | Structure (SMILES) |
| --- | --- |
| 615 | Cc1nc(-c2ccc(CN3CCN(CCC(C)(C)O)CC3)cc2)cc2c1c(F)c(-c1ccc(S(C)(=O)=O)cc1)n2C [Example 115, 4-(4-(4-(3-fluoro-1,4-dimethyl-2-(4-(methylsulfonyl)phenyl)-1H-pyrrolo[3,2-c]pyridin-6-yl)benzyl)piperazin-1-yl)-2-methylbutan-2-ol] |
| 385 | COCCN1CCN(c2ccc(-c3cc4c(cc(-c5ccc(S(=O)(=O)C6CC6)cc5)n4C)c(C)n3)cc2)CC1 [Example 48, 2-(4-(cyclopropylsulfonyl)phenyl)-6-(4-(4-(2-methoxyethyl)piperazin-1-yl)phenyl)-1,4-dimethyl-1H-pyrrolo[3,2-c]pyridine] |
| 270 | Cc1nc(-c2cc(F)c(N3CCN(CCCO)CC3)cc2F)cc2c1cc(-c1ccc(S(C)(=O)=O)cc1)n2C [Example 56, 3-(4-(4-(1,4-dimethyl-2-(4-(methylsulfonyl)phenyl)-1H-pyrrolo[3,2-c]pyridin-6-yl)-2,5-difluorophenyl)piperazin-1-yl)propan-1-ol] |
| 204 | Cc1nc(-c2ccc(C3(O)CCN(C(C)(C)C)CC3)cc2F)cc2c1cc(-c1ccc(S(C)(=O)=O)cc1)n2C [Example 108, 1-(tert-butyl)-4-(4-(1,4-dimethyl-2-(4-(methylsulfonyl)phenyl)-1H-pyrrolo[3,2-c]pyridin-6-yl)-3-fluorophenyl)piperidin-4-ol] |
| 191 | COc1ccc(-c2c(C)c3cc(C4CCN(C5CCN(CC(C)C)CC5)CC4)ncc3n2C)cc1OC [Example 13, 2-(3,4-dimethoxyphenyl)-5-(1′-isobutyl-[1,4′-bipiperidin]-4-yl)-1,3-dimethyl-1H-pyrrolo[2,3-c]pyridine] |
| 129 | CC(C)(O)CN1C2CCC1CN(Cc1ccc(-c3cc4c(cn3)cc(-c3ccc(S(C)(=O)=O)cc3)n4C3CC3)cc1)C2 [Example 121, 1-[3-[[4-[1-cyclopropyl-2-(4-methylsulfonylphenyl)pyrrolo[3,2-c]pyridin-6-yl]phenyl]methyl]-3,8-diazabicyclo[3.2.1]octan-8-yl]-2-methyl-propan-2-ol] |
| 116 | CCN1C2CCC1CC(O)(c1ccc(-c3cc4c(cc(-c5ccc(S(C)(=O)=O)cc5)n4C)c(C)n3)cc1F)C2 [Example 101, (1R,3r,5S)-3-(4-(1,4-dimethyl-2-(4-(methylsulfonyl)phenyl)-1H-pyrrolo[3,2-c]pyridin-6-yl)-2-fluorophenyl)-8-ethyl-8-azabicyclo[3.2.1]octan-3-ol] |
| 85 | Cc1nc(-c2ccc(CN3CCN(CC(C)(C)O)CC3)cc2)cc2c1cc(-c1ccc(S(C)(=O)=O)cc1)n2C1CC1 [Example 123, 1-(4-(4-(1-cyclopropyl-4-methyl-2-(4-(methylsulfonyl)phenyl)-1H-pyrrolo[3,2-c]pyridin-6-yl)benzyl)piperazin-1-yl)-2-methylpropan-2-ol] |
| 64 | Cc1nc(-c2ccc(CN3CCN(CCC(C)(C)O)CC3)cc2)cc2c1cc(-c1ccc(S(C)(=O)=O)cc1)n2C [Example 60, 4-(4-(4-(1,4-dimethyl-2-(4-(methylsulfonyl)phenyl)-1H-pyrrolo[3,2-c]pyridin-6-yl)benzyl)piperazin-1-yl)-2-methylbutan-2-ol] |
| 59 | Cc1nc(-c2ccc(N3CCN(CCCO)CC3)cc2)cc2c1cc(-c1ccc(S(C)(=O)=O)cc1)n2C [Example 36, 3-(4-(4-(1,4-dimethyl-2-(4-(methylsulfonyl)phenyl)-1H-pyrrolo[3,2-c]pyridin-6-yl)phenyl)piperazin-1-yl)propan-1-ol] |
| 53 | Cc1nc(-c2ccc(N3CC4CCC(C3)N4CCCO)cc2)cc2c1cc(-c1ccc(S(C)(=O)=O)cc1)n2C [Example 76, 3-(3-(4-(1,4-dimethyl-2-(4-(methylsulfonyl)phenyl)-1H-pyrrolo[3,2-c]pyridin-6-yl)phenyl)-3,8-diazabicyclo[3.2.1]octan-8-yl)propan-1-ol] |
| 21 | CC(C)CN1CCN(c2ccc(-c3cc4c(cn3)cc(-c3ccc(S(C)(=O)=O)cc3)n4C)cc2)CC1 [Example 53, 6-(4-(4-isobutylpiperazin-1-yl)phenyl)-1-methyl-2-(4-(methylsulfonyl)phenyl)-1H-pyrrolo[3,2-c]pyridine] |
